Reference: patent US20250353873A1, “COMPOUNDS AND METHODS FOR MODULATING APOE EXPRESSION” (Ionis Pharmaceuticals, Inc., priority 2024, published 2025)
Values joined by “and” are separate entries in the source; they are usually repeats but may differ in a detail not shown here. Equal entries are not always repeated. Strand notation (5' to 3'): a small letter for the sugar, then the base; units joined by * are phosphorothioate-linked, units joined directly phosphodiester-linked; [ ] holds rarer units or linkages, { } end groups; capitals alone tell only the bases. [ms] = mesyl phosphoramidate linkage; e = 2'-O-(2-methoxyethyl) (MOE); k = constrained ethyl (cEt); [5mC] = 5-methylcytosine; d = 2'-deoxy (DNA)

Columns and labels:
human APOE RNA [1] = assay: Activity in APOE C57BL/6NTac-Apoeem7250 knock-in mice, single ICV bolus, 8 weeks (Example 11); format: in vivo; details: single ICV bolus 300 μg, 8 weeks post treatment, normalized to mouse Ppia
Procedure, shortened: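 Human APOE knock-in C57BL/6NTac mice given one ICV bolus of 300 μg oligonucleotide; PBS-dosed group as control. At 8 weeks, cortex and spinal cord RNA measured by qRT-PCR (human probe RTS3073), normalized to mouse Ppia, expressed as % of PBS control.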

human APOE RNA [2] = assay: Activity in APOE C57BL/6NTac-Apoeem7250 knock-in mice, single ICV bolus, 16 weeks (Example 12); format: in vivo; details: single ICV bolus 300 μg, 16 weeks post treatment, normalized to mouse Ppia
Procedure, shortened: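 Knock-in mice (3-4 per group) received one ICV bolus of 300 μg oligonucleotide, PBS as control. After 16 weeks, human APOE RNA in cortex and spinal cord measured by RT-qPCR, normalized to mouse Ppia, and reported as % of PBS control.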

human APOE RNA [3] = assay: Activity in APOE C57BL/6NTac-Apoeem7250 knock-in mice, single ICV bolus, 20 weeks (Example 13); format: in vivo; details: single ICV bolus 300 μg, 20 weeks post treatment, normalized to mouse Ppia
Procedure, shortened: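 Knock-in mice (n=4) given a single ICV bolus of 300 μg oligonucleotide, PBS as control. After 20 weeks, human APOE RNA in cortex and spinal cord measured by RT-qPCR, normalized to mouse Ppia, expressed as % of PBS-treated animals.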

human APOE RNA [4] = assay: Dose-dependent inhibition of human APOE RNA in HepG2 cells, electroporation, 50,000 cells per well, RT-PCR normalized to GAPDH (Example 4, Tables 8-10); format: cell-based; details: HepG2, electroporation, 16-hour treatment
Procedure, shortened: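 HepG2 cells, 50,000 per well, electroporated with modified oligonucleotide at various concentrations. APOE RNA quantified by RT-PCR with human primer probe set RTS3073, normalized to GAPDH. Values are percent APOE RNA relative to untreated control cells.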

human APOE RNA [5] = assay: Activity in APOE C57BL/6NTac-Apoeem7250 knock-in mice, single ICV bolus, 4 weeks (Example 10); format: in vivo; details: single ICV bolus 300 μg, 4 weeks post treatment, normalized to mouse Ppia
Procedure, shortened: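 Knock-in mice (2–4 per group) received one 300 μg ICV bolus of oligonucleotide or PBS. After four weeks, human APOE RNA in cortex and spinal cord measured by RT-qPCR (primer probe set RTS3073), normalized to mouse Ppia, expressed as % of PBS controls.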

Row | Substance | APOE RNA (% control) Cortex (human APOE RNA [3]) [% control] | APOE RNA (% control) Spinal Cord (human APOE RNA [3]) [% control] | APOE RNA (% control) Cortex (human APOE RNA [5]) [% control] | APOE RNA (% control) Spinal Cord (human APOE RNA [5]) [% control] | other results
1 | 1693144: 6-10-4 MOE gapmer ACTTGGTGAATCTTTATTAA, linkages soosssszzzssssszsss (eA*e[5mC]eTeT*eG*eG*dT*dG[ms]dA[ms]dA[ms]dT*d[5mC]*dT*dT*dT*dA[ms]eT*eT*eA*eA) [compound 1693144] | 65 | 71 |  |  | APOE RNA (% control) Cortex (human APOE RNA [1]): 67 % control; APOE RNA (% control) Spinal Cord (human APOE RNA [1]): 43 % control; APOE RNA (% control) Cortex (human APOE RNA [2]): 113 % control and 61 % control
2 | 1757572 (eA*e[5mC]eTeT*kG*kG*dT*dG[ms]dA[ms]dA[ms]dT*d[5mC]*dT*dT*dT*dA[ms]eT*eT*eA*eA; antisense) [Compound 1757572] | 51 | 69 | 50 | 38 | APOE RNA (% UTC) (human APOE RNA [4]; 5 nM): 114 % UTC; APOE RNA (% UTC) (human APOE RNA [4]; 13 nM): 95 % UTC; APOE RNA (% UTC) (human APOE RNA [4]; 33 nM): 107 % UTC; APOE RNA (% UTC) (human APOE RNA [4]; 82 nM): 96 % UTC; APOE RNA (% UTC) (human APOE RNA [4]; 205 nM): 83 % UTC; APOE RNA (% UTC) (human APOE RNA [4]; 512 nM): 67 % UTC; APOE RNA (% UTC) (human APOE RNA [4]; 1,280 nM): 66 % UTC; APOE RNA (% UTC) (human APOE RNA [4]; 3,200 nM): 51 % UTC; APOE RNA (% UTC) (human APOE RNA [4]; 8,000 nM): 26 % UTC; APOE RNA (% UTC) (human APOE RNA [4]; 20,000 nM): 10 % UTC; IC50 (human APOE RNA [4]): 2350 nM
3 | 1757573 (eA*e[5mC]eTeT*eG*eG*dT*dG[ms]dA[ms]dA[ms]dT*d[5mC]*dT*dT*dT*dA[ms]kT*eT*eA*eA; antisense) [Compound 1757573] | 61 | 42 | 53 | 38 | 
4 | 1766559 (eT*eTeGeGeT*dG[ms]dA[ms]dA[ms]dT*d[5mC]*dT*dT*dT[ms]dA[ms]dT*kTkAeA*eA*e[5mC]; antisense) [Compound 1766559] | 100 | 74 | 79 | 81 | APOE RNA (% UTC) (human APOE RNA [4]; 5 nM): 166 % UTC; APOE RNA (% UTC) (human APOE RNA [4]; 33 nM): 65 % UTC; APOE RNA (% UTC) (human APOE RNA [4]; 82 nM): 47 % UTC; APOE RNA (% UTC) (human APOE RNA [4]; 205 nM): 46 % UTC; APOE RNA (% UTC) (human APOE RNA [4]; 512 nM): 41 % UTC; APOE RNA (% UTC) (human APOE RNA [4]; 1,280 nM): 30 % UTC; APOE RNA (% UTC) (human APOE RNA [4]; 3,200 nM): 21 % UTC; APOE RNA (% UTC) (human APOE RNA [4]; 8,000 nM): 35 % UTC; APOE RNA (% UTC) (human APOE RNA [4]; 20,000 nM): 36 % UTC; IC50 (human APOE RNA [4]): 340 nM
5 | 1778107: 6-10-4 MOE gapmer ACTTGGTGAATCTTTATTAA, linkages sooossszzsssssszsss (eA*e[5mC]eTeTeG*eG*dT*dG[ms]dA[ms]dA*dT*d[5mC]*dT*dT*dT*dA[ms]eT*eT*eA*eA) [compound 1778107] | 76 | 32 | 70 | 70 | 
6 | 1778108 (eA*e[5mC]eTeTeG*kG*dT*dG[ms]dA[ms]dA*dT*d[5mC]*dT*dT*dT*dA[ms]eT*eT*eA*eA; antisense) [Compound 1778108] | 70 | 21 | 60 | 41 | 
7 | 1778109: 6-10-4 MOE gapmer ACTTGGTGAATCTTTATTAA, linkages sooossszzsssssszoss (eA*e[5mC]eTeTeG*eG*dT*dG[ms]dA[ms]dA*dT*d[5mC]*dT*dT*dT*dA[ms]eTeT*eA*eA) [compound 1778109] | 81 | 34 | 59 | 61 | 
8 | 1778110: 6-10-4 MOE gapmer ACTTGGTGAATCTTTATTAA, linkages soooosszzsssssszoss (eA*e[5mC]eTeTeGeG*dT*dG[ms]dA[ms]dA*dT*d[5mC]*dT*dT*dT*dA[ms]eTeT*eA*eA) [compound 1778110] | 81 | 35 | 51 | 51 | 
9 | 1778112 (eA*e[5mC]eTeTeGkG*dT*dG[ms]dA[ms]dA*dT*d[5mC]*dT*dT*dT*dA[ms]eTeT*eA*eA; antisense) [Compound 1778112] | 67 | 25 | 46 | 49 | APOE RNA (% control) Cortex (human APOE RNA [1]): 49 % control; APOE RNA (% control) Spinal Cord (human APOE RNA [1]): 23 % control; APOE RNA (% control) Cortex (human APOE RNA [2]): 63 % control; APOE RNA (% control) Spinal Cord (human APOE RNA [2]): 25 % control
10 | 1778113 (eA*e[5mC]eTeTkG*kG*dT*dG[ms]dA[ms]dA*dT*d[5mC]*dT*dT*dT*dA[ms]eT*eT*eA*eA; antisense) [Compound 1778113] | 61 | 24 | 48 | 88 | APOE RNA (% control) Cortex (human APOE RNA [1]): 53 % control; APOE RNA (% control) Spinal Cord (human APOE RNA [1]): 28 % control; APOE RNA (% control) Cortex (human APOE RNA [2]): 46 % control; APOE RNA (% control) Spinal Cord (human APOE RNA [2]): 27 % control
11 | 1778117 (eA*e[5mC]eTeTeG*eG*dT*dG[ms]dA[ms]dA*dT*d[5mC]*dT*dT*dT*dA[ms]kT*eT*eA*eA; antisense) [Compound 1778117] | 72 | 36 | 46 | 114 | APOE RNA (% control) Cortex (human APOE RNA [1]): 49 % control; APOE RNA (% control) Spinal Cord (human APOE RNA [1]): 28 % control; APOE RNA (% control) Cortex (human APOE RNA [2]): 65 % control; APOE RNA (% control) Spinal Cord (human APOE RNA [2]): 36 % control
12 | 1778122 (eA*e[5mC]eTeTeG*eG*dT*dG[ms]dA[ms]dA*dT*d[5mC]*dT*dT*dT*dA[ms]kT*kT*eA*eA; antisense) [Compound 1778122] | 76 | 34 | 53 | 62 | 
13 | 1779699 (e[5mC]*eTeT*kG*kG*eT*dG[ms]dA[ms]dA[ms]dT*d[5mC]*dT*dT*dT*dA[ms]dT*eT*eA*eA*eA; antisense) [Compound 1779699] | 53 | 25 | 44 | 54 | 
14 | 1779706 (e[5mC]*eTeTkGkG*dT[ms]dG[ms]dA[ms]dA*dT*d[5mC]*dT*dT*dT*dA*dT*eT*eA*eA*eA; antisense) [Compound 1779706] | 46 | 36 | 35 | 53 | 
15 | 1779961 (e[5mC]*eTeT*kG[ms]kG*eT*dG[ms]dA[ms]dA[ms]dT*d[5mC]*dT*dT*dT*dA[ms]dT*eT*eA*eA*eA; antisense) [Compound 1779961] | 59 | 26 | 39 | 53 | 
16 | 1785588 (k[5mC]*kT*kT*dG[ms]dG[ms]dT[ms]dG*dA*dA[ms]dT[ms]d[5mC]*dT*dT*dT*dA*dT*kT*kA*dA[ms]kA; antisense) [Compound 1785588] | 40 | 18 | 30 | 29 | 
17 | 1785589 (k[5mC]*kT*kT*dG[ms]dG[ms]dT[ms]dG*dA*dA*dT[ms]d[5mC][ms]dT*dT*dT*dA*dT*kT*kA*dA[ms]kA; antisense) [Compound 1785589] | 49 | 30 | 32 | 40 | 
18 | 1785591 (k[5mC]*kT*kT*dG[ms]dG[ms]dT[ms]dG*dA*dA*dT*d[5mC]*dT[ms]dT[ms]dT*dA*dT*kT*kA*dA[ms]kA; antisense) [Compound 1785591] | 51 | 42 | 37 | 39 | 
